Assay results: US20250250251A1, “PIPERIDINYLPYRIDINYLCARBONITRILE DERIVATIVES AS INHIBITORS OF GLUTAMINYL-PEPTIDE CYCLOTRANSFERASE AND GLUTAMINYL-PEPTIDE CYCLOTRANSFERASE LIKE PROTEIN” (Boehringer Ingelheim International GmbH, priority 2024, published 2025)
Like-named read-outs stand apart in the source and are kept apart here.

What was measured:
[1] = target: T1, QPCTL (Homo sapiens, UniProt Q9NXS2); assay: Assay A: biochemical QPCTL activity assay (MALDI-TOF MS, CD47 peptide substrate); details: read-out: Inhibition of QPCTL: IC50
T1 construct: made in house
T1 sequence (Q9NXS2 whole entry, species assumed): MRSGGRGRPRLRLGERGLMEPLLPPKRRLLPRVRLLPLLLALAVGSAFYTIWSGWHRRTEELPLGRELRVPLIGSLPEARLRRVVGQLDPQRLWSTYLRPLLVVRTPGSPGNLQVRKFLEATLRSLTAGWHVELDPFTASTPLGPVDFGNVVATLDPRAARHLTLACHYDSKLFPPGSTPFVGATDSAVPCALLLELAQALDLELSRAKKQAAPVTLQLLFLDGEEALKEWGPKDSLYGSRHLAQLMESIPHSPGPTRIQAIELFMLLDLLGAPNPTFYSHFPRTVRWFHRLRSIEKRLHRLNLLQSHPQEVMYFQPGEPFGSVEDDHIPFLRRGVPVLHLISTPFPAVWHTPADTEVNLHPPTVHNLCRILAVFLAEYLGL
Protocol: (§1) QPCT or QPCTL dependent conversion of N-terminal glutamine to pyroglutamate of CD47 was monitored via MALDI-TOF MS. Test compounds were dissolved in 100% DMSO and serially diluted into clear 1,536-well microtiter plates. Enzymatic reactions were set up in assay buffer containing 20 mM Tris pH 7.5, 0.1 mM TCEP, 0.01% BSA, and 0.001% Tween20. […] The plates were incubated for 10 min in a humidified incubator at 24° C. Subsequently, 2.5 μL of CD47 peptide substrate surrogate (^19[…]^33) was added to each well (final concentration: 10 μM for QPCTL/20 μM for QPCT). The plates were mixed for 30 sec at 1,000 rpm and subsequently incubated for 40 min in a humidified incubator at 24° C. […] The plates were sealed with an adhesive foil, mixed for 30 s at 1,000 rpm and stored at room temperature until preparation of the MALDI target plates. MALDI target plates were prepared as described previously. […] QPCT or QPCTL activity was monitored by calculating the ratio between product and internal standard signals followed by normalization to high (100% activity) and low (0% activity) controls. Determination of compound potencies was obtained by fitting the dose-response data to a four-parameter logistical equation.

[2] = target: T2, QPCT (Homo sapiens, UniProt Q16769); assay: Assay A: biochemical QPCT activity assay (MALDI-TOF MS, CD47 peptide substrate); details: read-out: Inhibition of QPCT: IC50
T2 construct: purchased Origine (OriGene) TP700028
T2 sequence (Q16769 29-361): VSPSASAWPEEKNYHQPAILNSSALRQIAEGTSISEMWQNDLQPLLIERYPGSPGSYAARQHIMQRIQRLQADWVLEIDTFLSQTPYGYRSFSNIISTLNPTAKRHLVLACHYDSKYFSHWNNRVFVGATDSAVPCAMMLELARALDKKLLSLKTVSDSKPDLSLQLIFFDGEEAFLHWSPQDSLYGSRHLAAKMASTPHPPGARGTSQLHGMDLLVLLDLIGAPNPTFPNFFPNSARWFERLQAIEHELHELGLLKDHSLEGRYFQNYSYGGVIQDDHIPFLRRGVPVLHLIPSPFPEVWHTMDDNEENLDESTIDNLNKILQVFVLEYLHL
Protocol: as §1

[3] = system: SIRPα signalling induced by Raji cells; assay: Assay B: SIRPα signalling assay using Raji cells; format: cell-based; details: Homo sapiens, read-out: Inhibition of SIRPα signalling induced by Raji cells: IC50
Protocol: Bioassay reagent 1 of the PathHunter Bioassay detection kit (DiscoverX 93-0001) was added to each well of the plate using a multichannel pipette followed by a 15 min incubation at room temperature. Afterwards bioassay reagent 2 was added followed by 60 min incubation at room temperature (incubation in the dark).
The analysis of the data was performed using the luminescence signal generated by beta-galactosidase in the PathHunter reporter cell line. The luminescence measurement was done using a Pherastar Multi-Mode Reader.

[4] = system: SIRPα signalling induced by A549 cells; assay: Assay B: SIRPα signalling assay using A549 cells; format: cell-based; details: Homo sapiens, read-out: Inhibition of SIRPα signalling induced by A549 cells: IC50
Protocol: Two cell types are independently used: the Raji cell line (lymphoblast-like human cell line derived from B lymphocytes from a Burkitt's lymphoma patient in 1963) and A549 cells (adenocarcinoma human alveolar basal epithelial cells).
Test compounds were dissolved in 100% DMSO and serially diluted into a white 384-well microtiter cell culture plate (PerkinElmer #60076780 in case of Raji assay; PDL-coated plates Greiner #781945 in case of A549 assay). 5000 Raji cells (ATCC #CC86) or 5000 A549 cells (ATCC #CCL-185) in Assay Complete Cell Plating reagent 30 (DiscoverX 93-0563R30B) were added per well. The assay plate was incubated for 48 h at 37° C., 95% humidity and 5% CO2. 15000 reporter cells (Jurkat PathHunter SIRPαV1, DiscoverX #93-1135C19) were added to each well, and the plate was incubated for 5 h at 37° C., 95% humidity and 5% CO2. Bioassay reagent 1 of the PathHunter Bioassay detection kit (DiscoverX 93-0001) was added to each well of the plate using a multichannel pipette followed by a 15 min incubation at room temperature. Afterwards bioassay reagent 2 was added followed by 60 min incubation at room temperature (incubation in the dark).
The analysis of the data was performed using the luminescence signal generated by beta-galactosidase in the PathHunter reporter cell line. The luminescence measurement was done using a Pherastar Multi-Mode Reader. Dose-response curves & IC50 data were calculated with 4-parameter sigmoidal dose response formula.

[5] = Assay C: permeability in CACO-2 cells; format: in vitro ADME; details: human; for efflux ratio: read-out: Efflux Ratio
Protocol: Caco-2 cells (1-2×10^5 cells/1 cm^2 area) are seeded on filter inserts (Costar transwell polycarbonate or PET filters, 0.4 μm pore size) and cultured (DMEM) for 10 to 25 days. Compounds are dissolved in appropriate solvent (like DMSO, 1-20 mM stock solutions). […] The transport solution (TL) is applied to the apical or basolateral donor side for measuring A-B or B-A permeability (3 filter replicates), respectively. Samples are collected at the start and end of experiment from the donor and at various time intervals for up to 2 hours also from the receiver side for concentration measurement by HPLC-MS/MS or scintillation counting. Sampled receiver volumes are replaced with fresh receiver solution.
Efflux ratio (ER)=permeability B−A/permeability A−B

[6] = system: murine hepatocytes; assay: Assay E: stability in murine hepatocytes; format: in vitro ADME, mouse; details: 1 μM, 5% species serum
Protocol: The metabolic degradation of the test compound is assayed in a murine hepatocyte suspension.
Murine hepatocytes (typically cryopreserved) are incubated in an appropriate buffer system (e.g. Dulbecco's modified eagle medium plus 3.5 μg glucagon/500 mL, 2.5 mg insulin/500 mL and 3.75 mg/500 mL hydrocortison) containing 5% species serum.
Following a (typically) 30 min preincubation in an incubator (37° C., 10% CO2) 5 μl of test compound solution (80 μM; from 2 mM in DMSO stock solution diluted 1:25 with medium) are added into 395 μl hepatocyte suspension (cell density in the range 0.25-5 Mio cells/mL, typically 1 Mio cells/mL; final concentration of test compound 1 μM, final DMSO concentration 0.05%).
The cells are incubated for six hours (incubator, orbital shaker) and samples (25 μl) are taken at 0, 0.5, 1, 2, 4 and 6 hours. Samples are transferred into acetonitrile and pelleted by centrifugation (5 min). The supernatant is transferred to a new 96-deepwell plate, evaporated under nitrogen and resuspended.
Decline of parent compound is analyzed by HPLC-MS/MS
CLint is calculated as follows CL_[…]=Dose/AUC=(C0/CD)/(AUD+clast/k)×1000/60. C0: initial concentration in the incubation [μM], CD: cell density of vital cells [10e6 cells/mL], AUD: area under the data [μM×h], clast: concentration of last data point [μM], k: slope of the regression line for parent decline [h−1].
The calculated in vitro hepatic intrinsic clearance can be scaled up to the intrinsic in vivo hepatic Clearance and used to predict hepatic in vivo blood clearance (CL) by the use of a liver model (well stirred model).
[formula] [formula] [formula] • Hepatocellularity, mouse: 120×10e6 cells/g liver • Liver factor, mouse: 55 g/kg bodyweight • Blood flow, mouse: 90 ml/(min×kg)

[7] = system: CYP3A4 mRNA; assay: Assay D: CYP induction screening assay in primary human hepatocytes; format: in vitro ADME; details: 48 h
Protocol: Cryopreserved plateable human hepatocytes (single donor. BioIVT) were thawed and plated in Collagen-I coated 96-well-plates at a cell density of 0.07 million cells per well.
After a 6 h attachment period, the seeding medium was replaced by serum-free William's medium E supplemented with Matrigel (0.25 mg/ml) and allowed to recover overnight. 24 h post-seeding, serum-free Williams E medium containing the test compound at a final concentration of […] and a final DMSO content of 0.1% and 0.1% DMSO (solvent-treated control), respectively, was added to predefined wells. Exposure solutions were renewed after 24 h.
After 48 h of treatment in total, the effect of the test compounds on CYP3A4 mRNA expression was assessed using the QuantiGene Plex Gene Expression Assay. Hepatocytes were lysed and total RNA was extracted using the QuantiGene Sample Processing Kit according to the instructions of the manufacturer.
mRNA quantification was conducted using a customized QuantiGene Plex Panel to analyse CYP3A4 and the housekeeper genes RPL32, EIF4E2 and GUSB according to the instructions of the manufacturer and measured on a Luminex™ instrument. Signal was reported as median fluorescence intensity (MFI), which is proportional to the number of target RNA molecules present in the sample.
For calculation of CYP3A4 mRNA induction, the signal for CYP3A4 was normalized against the geometric mean of the signal obtained for the housekeeper genes for hepatocytes exposed to test compounds in relation to solvent-treated samples according to the following equation: […]

[8] = Table 2, compounds of the invention
[9] = Table 4, compounds of the invention
[10] = pH 7.2, Table 7, compounds of the invention, CACO-2 cells
[11] = pH 7.2, Table 7, compounds of the invention, CACO-2 cells, permeability B-A/permeability A-B
[12] = Table 12, compounds of the invention
[13] = Table 9, compounds of the invention

Structure (SMILES)	IC50 [1, 8] [nM]	IC50 [2, 8] [nM]	IC50 [3, 9] [nM]	IC50 [4, 9] [nM]	Papp A→B [5, 10] [×10⁻⁶ cm/s]	efflux ratio [5, 11]	Mouse Hepatocyte Stability QH [6, 12] [%]	IC50 ([1]; Table 3, prior art compounds) [nM]	IC50 ([2]; Table 3, prior art compounds) [nM]	IC50 ([3]; Table 5, prior art compounds) [nM]	IC50 ([4]; Table 5, prior art compounds) [nM]	Papp A→B ([5]; Caco-2, pH 7.2) [×10⁻⁶ cm/s]	efflux ratio ([5]; Caco-2, pH 7.2)	n-fold induction of CYP3A4 at 10 μM ([7]; Table 10, prior art compounds) [n-fold]	Mouse Hepatocyte Stability QH ([6]; Table 13, prior art compounds) [%]	n-fold induction of CYP3A4 at 10 μM [7, 13] [n-fold]
Cn1cnnc1C1(F)CCN(c2c(C#N)cc(C(F)(F)F)nc2-c2cc3cn(C(C)(C)C)nc3nc2C(F)F)CC1 [Example 14]	28	11	117	44	14	5.3	<12									
Cn1cnnc1C1CCN(c2c(C#N)cccc2-c2cncc3c2cnn3C)CC1 [Compound 4, reference compound]								97	313	> 10000	4500	0.3	28.1	0.8	92	
Cn1cnnc1C1(F)CCN(c2c(C#N)cc(C3CC3)nc2-c2cnc3nn(C(F)(F)F)cc3c2)CC1 [Example 2]	1	1	20	14	37	1.6	49									4.6
Cc1cc(-c2nc(C3CC3)cc(C#N)c2N2CCC(F)(c3nncn3C)CC2)cnn1 [Example 12]	16	14	950	145	5.6	9.5	21									4.1
Cn1cnnc1C1CCN(c2c(C#N)cccc2-c2cnc3cn[nH]c3c2)CC1 [Compound 125, reference compound]								159	446	4490	> 10000	0.6	30.4	2.1	45	
Cc1ncc(-c2cc(C#N)c(N3CCC(F)(c4nncn4C)CC3)c(-c3cnc4nn(C(F)(F)F)cc4c3)n2)o1 [Example 19]	2	2	139	25	8.1	7.2	<12									1.1
Cn1cnnc1C1(F)CCN(c2c(C#N)cc(C(F)(F)F)nc2-c2cnc3nn(C(C)(C)C)c(C4CC4)c3c2)CC1 [Example 26]	1	1	4	11	17	4.8	27									7.9
Cn1cncc1C1CCN(c2c(C#N)cccc2-c2ccc(F)nc2)CC1 [QP5038, reference compound]										21	6			58.5	97	
Cn1cnnc1C1(F)CCN(c2c(C#N)cc(C(F)(F)F)nc2-c2cnc3nn(C(C)(C)C)c(C(F)F)c3c2)CC1 [Example 16]	3	1	11	17	34	1.8										6.0
